Here are results for 19 compounds from patent publication US11390616B2 (BRISTOL-MYERS SQUIBB COMPANY, priority 2015, dated 2022).

The experiment concerns the target T1, human APJ receptor (Homo sapiens, UniProt P35414).
T1 construct: expressed in transfected cells; host or cells: HEK293
T1 sequence (P35414 1-380): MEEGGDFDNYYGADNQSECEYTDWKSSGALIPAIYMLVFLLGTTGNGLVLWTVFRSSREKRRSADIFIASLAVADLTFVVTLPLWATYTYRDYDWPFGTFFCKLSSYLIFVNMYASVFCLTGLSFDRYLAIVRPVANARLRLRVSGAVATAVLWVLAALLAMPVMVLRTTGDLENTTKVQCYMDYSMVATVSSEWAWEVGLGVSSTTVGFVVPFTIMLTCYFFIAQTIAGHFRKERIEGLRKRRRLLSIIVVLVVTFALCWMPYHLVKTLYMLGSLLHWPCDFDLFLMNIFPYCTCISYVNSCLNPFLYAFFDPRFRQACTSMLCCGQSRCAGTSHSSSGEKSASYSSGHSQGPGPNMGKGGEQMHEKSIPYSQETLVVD
Briefly: Intracellular cAMP accumulation assay (APJ hcAMP, HTRF). Format: cell-based. To be noted: HEK293 cells stably expressing human APJ receptor; inhibition of forskolin-mediated cAMP production; read-out: APJ cAMP Potency range. Put shortly: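 HEK293 cells stably expressing the receptor (5,000/well) treated with compound plus […] and 2 μM forskolin for 30 min at room temperature; cAMP by HTRF against a cAMP standard curve. EC50 from variable-slope sigmoidal fit; Ymax as % of (Pyr1)apelin-13 inhibition.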
Background: Changes in cAMP serve as a functional read-out for many G protein-coupled receptors.

Each structure is given as a SMILES string.

For the compound `CCCCc1nc(=O)c(Cc2ccc(-n3cc(Cl)ccc3=O)cc2)c(O)n1[C@@H](CC)c1cccc(C#N)c1` [Example 100, 3-[(1S)-1-(2-butyl-5-{[4-(5-chloro-2-oxo-1,2-dihydropyridin-1-yl)phenyl]methyl}-6-hydroxy-4-oxo-1-4-dihydropyrimidin-1-yl)propyl]benzonitrile], the EC50 lay in the range of 0.01 to 10 nM. With `CCCCc1nc(=O)c(Cc2ccc(C3CC3)cc2)c(O)n1[C@@H](CC)c1cccc(C#N)c1` [Example 101, 3-[(1S)-1-{2-butyl-5-[(4-cyclopropylphenyl)methyl]-6-hydroxy-4-oxo-1,4-dihydropyrimidin-1-yl}propyl]benzonitrile] the figure was 0.01 to 10 nM. In the case of `CCCCc1nc(=O)c(Cc2ccc(C3CC3)cc2)c(O)n1[C@@H](CC)c1cccc(C#N)c1` [Example 102, 3-[(1S)-1-{2-butyl-5-[(4-cyclopropylphenyl)methyl]-6-hydroxy-4-oxo-1,4-dihydropyrimidin-1-yl}propyl]benzonitrile] it was 10 to 100 nM; in that of `CCCCc1nc(=O)c(Cc2ccc(-c3ccnc(F)c3C)cc2)c(O)n1[C@@H](CC)c1cccc(F)c1` [Example 103, 2-butyl-5-{[4-(2-fluoro-3-methylpyridin-4-yl)phenyl]methyl}-1-[(1S)-1-(3-fluorophenyl)propyl]-6-hydroxy-1,4-dihydropyrimidin-4-one], 0.01 to 10 nM; in that of `CCCCc1nc(=O)c(Cc2ccc(-c3ccc(F)nc3C)cc2)c(O)n1[C@@H](CC)c1cccc(F)c1` [Example 104, 2-butyl-5-{[4-(6-fluoro-2-methylpyridin-3-yl)phenyl]methyl}-1-[(1S)-1-(3-fluorophenyl)propyl]-6-hydroxy-1,4-dihydropyrimidin-4-one], 0.01 to 10 nM.

As for `CCCCc1nc(=O)c(Cc2ccc(-c3cccnc3C)cc2)c(O)n1[C@@H](CC)c1cccc(F)c1` [Example 105, 2-butyl-1-[(1S)-1-(3-fluorophenyl)propyl]-6-hydroxy-5-{[4-(2-methylpyridin-3-yl)phenyl]methyl}-1,4-dihydropyrimidin-4-one], the EC50 was 0.01 to 10 nM. On to `CCCCc1nc(=O)c(Cc2ccc(-c3ccncc3C)cc2)c(O)n1[C@@H](CC)c1cccc(F)c1` [Example 106, 2-butyl-1-[(1S)-1-(3-fluorophenyl)propyl]-6-hydroxy-5-{[4-(3-methylpyridin-4-yl)phenyl]methyl}-1,4-dihydropyrimidin-4-one], for which the EC50 fell in the range of 0.01 to 10 nM.

Take `CC[C@@H](c1cc(F)cc(F)c1)n1c(CCC2CC2)nc(=O)c(Cc2ccc(-c3ccc(F)nc3C)cc2)c1O` [Example 107, 2-(2-cyclopropylethyl)-1-[(1S)-1-(3,5-difluorophenyl)propyl]-5-{[4-(6-fluoro-2-methylpyridin-3-yl)phenyl]methyl}-6-hydroxy-1,4-dihydropyrimidin-4-one]: the EC50 is 0.01 to 10 nM. On to `CC[C@@H](c1cc(F)cc(F)c1)n1c(COC(C)C)nc(=O)c(Cc2ccc(-c3ccnc(F)c3C)cc2)c1O` [Example 108, 1-[(1S)-1-(3,5-difluorophenyl)propyl]-5-{[4-(2-fluoro-3-methylpyridin-4-yl)phenyl]methyl}-6-hydroxy-2-[(propan-2-yloxy)methyl]-1,4-dihydropyrimidin-4-one], for which the EC50 was in the range of 0.01 to 10 nM. In the case of `CC[C@@H](c1cc(F)cc(F)c1)n1c(CCC2CC2)nc(=O)c(Cc2ccc(-c3cccnc3C)cc2)c1O` [Example 109, 2-(2-cyclopropylethyl)-1-[(1S)-1-(3,5-difluorophenyl)propyl]-6-hydroxy-5-{[4-(2-methylpyridin-3-yl)phenyl]methyl}-1,4-dihydropyrimidin-4-one] it was 0.01 to 10 nM; in that of `CC[C@@H](c1cc(F)cc(F)c1)n1c(CCC2CC2)nc(=O)c(Cc2ccc(-c3ccncc3C)cc2)c1O` [Example 110, 2-(2-cyclopropylethyl)-1-[(1S)-1-(3,5-difluorophenyl)propyl]-6-hydroxy-5-{[4-(3-methylpyridin-4-yl)phenyl]methyl}-1,4-dihydropyrimidin-4-one], 0.01 to 10 nM.

For the compound `CC[C@@H](c1cc(F)cc(F)c1)n1c(COC(C)C)nc(=O)c(Cc2ccc(-c3cccnc3C)cc2)c1O` [Example 111, 1-[(1S)-1-(3,5-difluorophenyl)propyl]-6-hydroxy-5-{[4-(2-methylpyridin-3-yl)phenyl]methyl}-2-[(propan-2-yloxy)methyl]-1,4-dihydropyrimidin-4-one], the EC50 is 0.01 to 10 nM.

For the compound `CC[C@@H](c1cc(F)cc(F)c1)n1c(COC(C)C)nc(=O)c(Cc2ccc(-c3ccc(F)nc3C)cc2)c1O` [Example 112, 1-[(1S)-1-(3,5-difluorophenyl)propyl]-5-{[4-(6-fluoro-2-methylpyridin-3-yl)phenyl]methyl}-6-hydroxy-2-[(propan-2-yloxy)methyl]-1,4-dihydropyrimidin-4-one], the EC50 lay in the range of 0.01 to 10 nM. In the case of `CC[C@@H](c1cc(F)cc(F)c1)n1c(CCC2CC2)nc(=O)c(Cc2ccc(-c3ccnc(F)c3C)cc2)c1O` [Example 113, 2-(2-cyclopropylethyl)-1-[(1S)-1-(3,5-difluorophenyl)propyl]-5-{[4-(2-fluoro-3-methylpyridin-4-yl)phenyl]methyl}-6-hydroxy-1,4-dihydropyrimidin-4-one] it was 0.01 to 10 nM; in that of `CC[C@@H](c1cc(F)cc(F)c1)n1c(COC(C)C)nc(=O)c(Cc2ccc(-c3ccncc3C)cc2)c1O` [Example 114, 1-[(1S)-1-(3,5-difluorophenyl)propyl]-6-hydroxy-5-{[4-(3-methylpyridin-4-yl)phenyl]methyl}-2-[(propan-2-yloxy)methyl]-1,4-dihydropyrimidin-4-one], 0.01 to 10 nM; in that of `Cc1ncccc1-c1ccc(Cc2c(O)n([C@H](c3cc(F)cc(F)c3)C(C)C)c(COC(C)C)nc2=O)cc1` [Example 115, 1-[(1S)-1-(3,5-difluorophenyl)-2-methylpropyl]-6-hydroxy-5-{[4-(2-methylpyridin-3-yl)phenyl]methyl}-2-[(propan-2-yloxy)methyl]-1,4-dihydropyrimidin-4-one], 0.01 to 10 nM.

`CC(C)OCc1nc(=O)c(Cc2ccc(-c3ccc(F)cc3C(N)=O)cc2)c(O)n1[C@H](c1cc(F)cc(F)c1)C(C)C` [Example 116, 4′-({1-[(1S)-1-(3,5-difluorophenyl)-2-methylpropyl]-6-hydroxy-4-oxo-2-[(propan-2-yloxy)methyl]-1,4-dihydropyrimidin-5-yl}methyl)-4-fluoro-[1,1′-biphenyl]-2-carboxamide]: the EC50 lay within 0.01 to 10 nM. As for `CC(C)[C@@H](c1cc(F)cc(F)c1)n1c(CCC2CC2)nc(=O)c(Cc2ccc(-c3ccc(F)cc3C(N)=O)cc2)c1O` [Example 117, 4′-{[2-(2-cyclopropylethyl)-1-[(1S)-1-(3,5-difluorophenyl)-2-methylpropyl]-6-hydroxy-4-oxo-1,4-dihydropyrimidin-5-yl]methyl}-4-fluoro-[1,1′-biphenyl]-2-carboxamide], the EC50 was in the range of 0.01 to 10 nM. As for `CC[C@@H](c1ccccc1)n1c(-c2nc(C)cs2)nc(=O)c(Cc2ccc(-c3ccnc(F)c3C)c(F)c2)c1O` [Example 118, 5-{[3-fluoro-4-(2-fluoro-3-methylpyridin-4-yl)phenyl]methyl}-6-hydroxy-2-(4-methyl-1,3-thiazol-2-yl)-1-[(1S)-1-phenylpropyl]-1,4-dihydropyrimidin-4-one], the EC50 was in the range of 0.01 to 10 nM.
